Data as given in article PMC3961306, “Comparison of the Cancer Gene Targeting and Biochemical Selectivities of All Targeted Kinase Inhibitors Approved for Clinical Use” (PLoS ONE, 2014).

Key:
Test in all cases: Kinase profiling in a biochemical assay panel (mobility shift assays and ELISA), %-inhibition at 1 μM; selectivity entropy
[1] = target: T1, panel of more than 300 wild-type and mutant kinases (313 kinase panel) (Homo sapiens, UniProt O15264); conditions: kinase p38δ; 1 μM
T1 sequence (O15264 1-365): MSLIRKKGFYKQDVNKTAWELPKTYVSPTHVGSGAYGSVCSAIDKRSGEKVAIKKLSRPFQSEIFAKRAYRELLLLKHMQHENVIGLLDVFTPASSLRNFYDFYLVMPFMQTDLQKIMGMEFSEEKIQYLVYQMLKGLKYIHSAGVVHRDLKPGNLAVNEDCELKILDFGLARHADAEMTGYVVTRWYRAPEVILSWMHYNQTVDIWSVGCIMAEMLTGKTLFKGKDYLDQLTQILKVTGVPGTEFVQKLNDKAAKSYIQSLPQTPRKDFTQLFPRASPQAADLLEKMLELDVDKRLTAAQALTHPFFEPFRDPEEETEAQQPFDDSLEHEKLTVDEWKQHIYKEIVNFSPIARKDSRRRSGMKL

[2] = target: T2, panel of more than 300 wild-type and mutant kinases (313 kinase panel) (Homo sapiens, UniProt O60285)
T2 sequence (O60285 1-661): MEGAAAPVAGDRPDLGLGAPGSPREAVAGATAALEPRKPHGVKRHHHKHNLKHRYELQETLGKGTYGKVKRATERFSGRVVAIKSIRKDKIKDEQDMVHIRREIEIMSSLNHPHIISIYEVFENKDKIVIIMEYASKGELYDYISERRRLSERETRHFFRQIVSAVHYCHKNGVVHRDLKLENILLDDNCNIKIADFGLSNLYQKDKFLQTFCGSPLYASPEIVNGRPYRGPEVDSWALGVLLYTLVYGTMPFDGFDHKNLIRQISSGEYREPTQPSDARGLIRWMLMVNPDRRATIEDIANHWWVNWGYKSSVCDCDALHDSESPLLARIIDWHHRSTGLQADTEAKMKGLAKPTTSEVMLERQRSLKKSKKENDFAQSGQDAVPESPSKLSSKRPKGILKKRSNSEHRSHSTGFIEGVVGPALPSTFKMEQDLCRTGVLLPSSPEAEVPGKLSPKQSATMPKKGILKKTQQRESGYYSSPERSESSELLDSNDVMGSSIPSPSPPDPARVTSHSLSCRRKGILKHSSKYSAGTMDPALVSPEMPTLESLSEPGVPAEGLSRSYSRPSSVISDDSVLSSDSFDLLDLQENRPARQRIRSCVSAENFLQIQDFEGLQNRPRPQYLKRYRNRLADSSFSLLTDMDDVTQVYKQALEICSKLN

[3] = target: panel of more than 300 wild-type and mutant kinases (313 kinase panel) (Homo sapiens, UniProt O96013)
[4] = target: panel of more than 300 wild-type and mutant kinases (313 kinase panel) (Homo sapiens, UniProt P07949, S891A)
[5] = target: panel of more than 300 wild-type and mutant kinases (313 kinase panel) (Homo sapiens, UniProt P22455); conditions: kinase FGFR4; compound at 1 μM
[6] = target: T3, panel of more than 300 wild-type and mutant kinases (313 kinase panel) (Homo sapiens, UniProt P42681); conditions: kinase TXK; compound at 1 μM
T3 sequence (P42681 1-527): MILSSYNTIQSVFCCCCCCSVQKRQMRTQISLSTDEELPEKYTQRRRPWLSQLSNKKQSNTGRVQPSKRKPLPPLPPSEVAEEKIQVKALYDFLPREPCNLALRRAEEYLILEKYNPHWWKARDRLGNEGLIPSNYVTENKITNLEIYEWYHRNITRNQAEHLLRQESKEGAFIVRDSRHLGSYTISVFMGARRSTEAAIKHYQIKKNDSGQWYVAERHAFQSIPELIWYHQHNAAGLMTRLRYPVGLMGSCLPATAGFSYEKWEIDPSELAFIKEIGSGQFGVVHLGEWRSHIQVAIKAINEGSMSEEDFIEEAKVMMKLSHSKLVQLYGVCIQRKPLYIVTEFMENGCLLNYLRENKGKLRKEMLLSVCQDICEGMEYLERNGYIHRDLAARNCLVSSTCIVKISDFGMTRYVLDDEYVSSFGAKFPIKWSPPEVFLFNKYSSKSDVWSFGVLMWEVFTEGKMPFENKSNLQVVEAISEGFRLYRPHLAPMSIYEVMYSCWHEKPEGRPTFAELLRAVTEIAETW

[7] = target: T4, panel of more than 300 wild-type and mutant kinases (313 kinase panel) (Homo sapiens, UniProt P53778); conditions: kinase p38γ; 1 μM
T4 sequence (P53778 1-367): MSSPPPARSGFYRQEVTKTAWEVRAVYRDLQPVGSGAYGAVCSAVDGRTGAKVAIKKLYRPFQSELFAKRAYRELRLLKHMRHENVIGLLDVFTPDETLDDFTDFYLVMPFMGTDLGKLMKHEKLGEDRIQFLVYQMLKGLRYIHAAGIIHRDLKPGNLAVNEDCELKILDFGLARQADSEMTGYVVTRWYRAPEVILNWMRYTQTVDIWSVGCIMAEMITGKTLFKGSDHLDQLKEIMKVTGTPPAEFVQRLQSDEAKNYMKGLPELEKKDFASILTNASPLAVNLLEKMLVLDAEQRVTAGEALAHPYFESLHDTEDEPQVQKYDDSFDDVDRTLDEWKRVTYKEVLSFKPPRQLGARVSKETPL

[8] = target: panel of more than 300 wild-type and mutant kinases (313 kinase panel) (Homo sapiens, UniProt Q96RG2); conditions: kinase PASK; 1 μM
[9] = target: panel of more than 300 wild-type and mutant kinases (313 kinase panel) (Homo sapiens, UniProt Q9H4A3); conditions: kinase WNK1; compound at 1 μM
Chain of panel of more than 300 wild-type and mutant kinases (313 kinase panel) (Homo sapiens, UniProt Q9H4A3) (Q9H4A3 whole entry, change not shown): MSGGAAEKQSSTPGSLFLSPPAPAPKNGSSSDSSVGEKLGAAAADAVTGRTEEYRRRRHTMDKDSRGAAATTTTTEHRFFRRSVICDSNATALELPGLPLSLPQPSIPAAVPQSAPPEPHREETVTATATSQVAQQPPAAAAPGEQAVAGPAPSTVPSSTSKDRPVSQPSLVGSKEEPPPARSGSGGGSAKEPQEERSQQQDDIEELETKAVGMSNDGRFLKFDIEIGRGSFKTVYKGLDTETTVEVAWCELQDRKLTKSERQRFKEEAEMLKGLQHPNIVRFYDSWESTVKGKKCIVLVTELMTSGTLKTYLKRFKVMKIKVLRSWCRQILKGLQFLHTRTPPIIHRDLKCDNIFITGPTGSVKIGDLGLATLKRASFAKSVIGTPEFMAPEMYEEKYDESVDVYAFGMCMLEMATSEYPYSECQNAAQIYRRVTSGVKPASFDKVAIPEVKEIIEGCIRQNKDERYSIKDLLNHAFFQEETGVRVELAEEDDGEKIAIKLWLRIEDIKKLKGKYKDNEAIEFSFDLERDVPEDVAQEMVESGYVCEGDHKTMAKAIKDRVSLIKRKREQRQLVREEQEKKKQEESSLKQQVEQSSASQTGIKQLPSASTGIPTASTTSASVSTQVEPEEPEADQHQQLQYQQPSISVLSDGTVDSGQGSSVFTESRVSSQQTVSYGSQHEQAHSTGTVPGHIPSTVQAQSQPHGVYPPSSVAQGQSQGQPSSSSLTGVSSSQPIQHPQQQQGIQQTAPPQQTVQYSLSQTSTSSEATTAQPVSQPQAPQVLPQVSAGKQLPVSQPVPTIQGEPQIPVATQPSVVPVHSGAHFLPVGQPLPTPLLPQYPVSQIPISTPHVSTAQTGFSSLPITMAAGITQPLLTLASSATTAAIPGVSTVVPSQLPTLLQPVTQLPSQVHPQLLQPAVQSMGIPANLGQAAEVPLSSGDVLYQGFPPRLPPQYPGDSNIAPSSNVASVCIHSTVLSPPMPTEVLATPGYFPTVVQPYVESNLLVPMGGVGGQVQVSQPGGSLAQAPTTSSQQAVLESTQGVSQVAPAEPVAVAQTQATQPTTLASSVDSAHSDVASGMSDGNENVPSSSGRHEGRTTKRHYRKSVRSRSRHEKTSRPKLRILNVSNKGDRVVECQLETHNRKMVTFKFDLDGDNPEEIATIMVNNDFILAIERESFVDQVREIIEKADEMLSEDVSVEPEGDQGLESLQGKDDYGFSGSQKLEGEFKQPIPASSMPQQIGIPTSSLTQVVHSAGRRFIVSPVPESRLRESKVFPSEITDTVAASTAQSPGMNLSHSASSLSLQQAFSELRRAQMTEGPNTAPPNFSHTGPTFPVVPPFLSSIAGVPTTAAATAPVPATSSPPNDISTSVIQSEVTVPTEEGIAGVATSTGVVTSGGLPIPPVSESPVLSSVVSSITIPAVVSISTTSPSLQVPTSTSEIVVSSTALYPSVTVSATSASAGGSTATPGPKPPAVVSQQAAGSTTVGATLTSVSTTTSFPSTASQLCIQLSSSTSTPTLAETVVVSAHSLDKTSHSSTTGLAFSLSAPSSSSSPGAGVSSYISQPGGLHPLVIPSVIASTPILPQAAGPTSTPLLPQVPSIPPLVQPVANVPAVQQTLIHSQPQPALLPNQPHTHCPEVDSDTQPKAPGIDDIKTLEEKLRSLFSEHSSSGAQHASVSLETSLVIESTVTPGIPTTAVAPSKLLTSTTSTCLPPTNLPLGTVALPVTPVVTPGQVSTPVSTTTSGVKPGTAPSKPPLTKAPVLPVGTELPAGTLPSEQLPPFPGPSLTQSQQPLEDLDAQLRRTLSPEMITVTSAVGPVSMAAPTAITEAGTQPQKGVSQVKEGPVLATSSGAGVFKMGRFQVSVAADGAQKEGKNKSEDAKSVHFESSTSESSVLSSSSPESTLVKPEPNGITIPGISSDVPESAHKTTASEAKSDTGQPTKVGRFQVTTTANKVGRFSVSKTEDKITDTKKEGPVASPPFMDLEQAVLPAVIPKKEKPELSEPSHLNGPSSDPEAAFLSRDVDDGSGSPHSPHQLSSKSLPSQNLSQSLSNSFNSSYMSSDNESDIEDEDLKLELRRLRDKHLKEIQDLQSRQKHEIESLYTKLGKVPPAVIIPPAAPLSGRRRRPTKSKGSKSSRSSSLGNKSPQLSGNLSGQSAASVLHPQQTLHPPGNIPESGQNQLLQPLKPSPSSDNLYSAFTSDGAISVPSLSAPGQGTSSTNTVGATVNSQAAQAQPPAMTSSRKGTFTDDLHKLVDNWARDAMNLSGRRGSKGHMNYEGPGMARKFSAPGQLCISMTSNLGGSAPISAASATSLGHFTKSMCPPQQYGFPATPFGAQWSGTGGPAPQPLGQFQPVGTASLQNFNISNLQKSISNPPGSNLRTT

Chain of panel of more than 300 wild-type and mutant kinases (313 kinase panel) (Homo sapiens, UniProt Q96RG2) (Q96RG2 whole entry, change not shown): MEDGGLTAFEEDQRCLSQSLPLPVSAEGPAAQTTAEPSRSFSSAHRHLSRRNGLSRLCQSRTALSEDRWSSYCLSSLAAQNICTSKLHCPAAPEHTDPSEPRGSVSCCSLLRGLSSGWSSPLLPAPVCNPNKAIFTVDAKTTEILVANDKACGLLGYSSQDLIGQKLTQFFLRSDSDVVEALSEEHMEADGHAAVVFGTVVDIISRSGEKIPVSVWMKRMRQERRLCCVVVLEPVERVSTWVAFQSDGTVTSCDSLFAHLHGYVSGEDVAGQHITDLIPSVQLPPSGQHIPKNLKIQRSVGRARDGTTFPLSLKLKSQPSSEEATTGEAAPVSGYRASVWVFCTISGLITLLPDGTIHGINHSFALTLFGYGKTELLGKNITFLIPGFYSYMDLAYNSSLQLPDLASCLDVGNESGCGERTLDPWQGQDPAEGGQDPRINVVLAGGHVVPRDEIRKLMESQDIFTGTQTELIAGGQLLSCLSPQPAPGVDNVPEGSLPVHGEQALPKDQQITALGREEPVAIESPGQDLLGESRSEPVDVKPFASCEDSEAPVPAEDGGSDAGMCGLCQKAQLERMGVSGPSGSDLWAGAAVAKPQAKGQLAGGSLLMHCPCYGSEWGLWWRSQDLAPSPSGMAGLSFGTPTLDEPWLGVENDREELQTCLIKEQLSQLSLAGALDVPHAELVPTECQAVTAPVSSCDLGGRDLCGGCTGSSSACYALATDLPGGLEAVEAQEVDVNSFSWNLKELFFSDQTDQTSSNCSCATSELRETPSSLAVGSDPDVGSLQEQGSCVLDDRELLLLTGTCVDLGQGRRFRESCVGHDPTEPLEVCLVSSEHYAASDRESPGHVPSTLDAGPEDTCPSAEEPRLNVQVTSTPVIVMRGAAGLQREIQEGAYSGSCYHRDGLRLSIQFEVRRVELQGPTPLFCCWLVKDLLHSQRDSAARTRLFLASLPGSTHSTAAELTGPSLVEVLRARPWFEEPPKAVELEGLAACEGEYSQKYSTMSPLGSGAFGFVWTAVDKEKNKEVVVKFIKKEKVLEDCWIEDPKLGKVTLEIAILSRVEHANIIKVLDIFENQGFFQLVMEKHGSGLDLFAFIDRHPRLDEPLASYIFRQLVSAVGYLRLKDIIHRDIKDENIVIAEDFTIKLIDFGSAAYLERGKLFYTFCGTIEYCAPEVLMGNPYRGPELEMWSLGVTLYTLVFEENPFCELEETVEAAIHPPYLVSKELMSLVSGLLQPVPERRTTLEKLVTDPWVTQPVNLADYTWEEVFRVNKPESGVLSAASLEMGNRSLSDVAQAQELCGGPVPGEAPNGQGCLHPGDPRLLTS
Chain of panel of more than 300 wild-type and mutant kinases (313 kinase panel) (Homo sapiens, UniProt P07949, S891A) (P07949 29-1114 S891A): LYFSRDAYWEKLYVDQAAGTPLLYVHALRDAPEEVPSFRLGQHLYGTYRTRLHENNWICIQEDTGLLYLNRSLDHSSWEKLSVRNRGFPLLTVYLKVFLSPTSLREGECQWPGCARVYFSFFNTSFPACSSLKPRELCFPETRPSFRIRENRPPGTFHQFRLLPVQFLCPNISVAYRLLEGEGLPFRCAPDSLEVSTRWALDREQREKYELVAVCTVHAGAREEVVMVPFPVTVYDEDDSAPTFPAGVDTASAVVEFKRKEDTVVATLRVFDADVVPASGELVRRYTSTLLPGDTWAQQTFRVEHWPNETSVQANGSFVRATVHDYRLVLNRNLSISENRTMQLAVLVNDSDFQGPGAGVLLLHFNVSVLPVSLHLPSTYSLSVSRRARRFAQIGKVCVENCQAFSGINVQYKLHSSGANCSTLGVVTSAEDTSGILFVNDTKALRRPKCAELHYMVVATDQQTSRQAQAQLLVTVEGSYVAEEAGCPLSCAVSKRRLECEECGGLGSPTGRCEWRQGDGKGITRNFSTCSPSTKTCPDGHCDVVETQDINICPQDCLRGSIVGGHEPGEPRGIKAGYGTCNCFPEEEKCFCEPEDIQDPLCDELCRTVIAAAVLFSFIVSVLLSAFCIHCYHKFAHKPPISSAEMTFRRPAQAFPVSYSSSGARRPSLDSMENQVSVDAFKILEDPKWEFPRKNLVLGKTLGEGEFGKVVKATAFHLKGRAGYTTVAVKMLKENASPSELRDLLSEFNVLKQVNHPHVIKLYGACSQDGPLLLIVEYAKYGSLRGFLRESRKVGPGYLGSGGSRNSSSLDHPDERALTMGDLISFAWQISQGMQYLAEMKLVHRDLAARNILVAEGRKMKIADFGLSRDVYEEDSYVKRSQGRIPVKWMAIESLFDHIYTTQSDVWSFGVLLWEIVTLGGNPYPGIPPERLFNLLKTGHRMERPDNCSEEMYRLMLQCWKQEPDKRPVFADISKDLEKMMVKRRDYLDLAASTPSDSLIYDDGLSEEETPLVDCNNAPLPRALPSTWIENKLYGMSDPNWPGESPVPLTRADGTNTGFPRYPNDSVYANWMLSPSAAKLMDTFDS

SMILES | %-inhibition of p38δ [1] [%] | %-inhibition of NuaK1 ([2]; kinase NuaK1, 1 μM) [%] | %-inhibition of PAK4 ([3]; kinase PAK4, 1 μM) [%] | %-inhibition of RET(S891A) ([4]; kinase RET(S891A), 1 μM) [%] | %-inhibition of FGFR4 [5] [%] | %-inhibition of TXK [6] [%] | %-inhibition of p38γ [7] [%] | %-inhibition of PASK [8] [%] | %-inhibition of WNK1 [9] [%] | %-inhibition of NuaK1 ([2]; 1 µM) [%] | %-inhibition of PAK4 ([3]; 1 µM) [%] | %-inhibition of RET(S891A) ([4]; 1 µM) [%]
CC(C)(C)c1nc(-c2cccc(NS(=O)(=O)c3c(F)cccc3F)c2F)c(-c2ccnc(N)n2)s1 [dabrafenib] | -3.43 | 7 | 11 | 53 | 19 | 18 | 0.311 | 1.12 | 1.14 | – | – | –
CCCS(=O)(=O)Nc1ccc(F)c(C(=O)c2c[nH]c3ncc(-c4ccc(Cl)cc4)cc23)c1F [vemurafenib] | 8 | 4 | -7 | 60 | 5 | 5 | -0.299 | 2.35 | 10 | – | – | –
Cc1cn(-c2cc(NC(=O)c3ccc(C)c(Nc4nccc(-c5cccnc5)n4)c3)cc(C(F)(F)F)c2)cn1 [nilotinib] | -10 | – | – | – | -7.46 | 16 | -15 | -3 | -0.88 | -17 | -21 | 81
CC(=O)Nc1cccc(-n2c(=O)n(C3CC3)c(=O)c3c(Nc4ccc(I)cc4F)n(C)c(=O)c(C)c32)c1 [trametinib] | -2.7 | -0.634 | -0.675 | -1.24 | -3 | -4.66 | 0.684 | -0.187 | -1.42 | – | – | –
